The text below walks through data of US6590127B1, “Process for the preparation of pharmacologically active α-asarone from toxic β-asarone rich acorus calamus oil” (priority 2002, dated 2003).

Each structure is given as a SMILES string.

The subject of one data set is animals. The following applies: cited from earlier work.
Another data set relates to human lymphocytes. The following applies: human lymphocytes in-vitro after metabolic activation; cited from earlier work.
The nature of data set [1]: Toxicity of 2,4,5-trimethoxyphenylpropane compared with β-asarone.
Data set [2] has as its system mice fed with a high cholesterol diet. Particulars: oral dose of 80 mg/kg; cited from earlier work.
For another data set, the system named is rats. The following applies: cited from earlier work.
A further data set has as its system mice. Particulars: cited from earlier work.

As for `C/C=C\c1cc(OC)c(OC)cc1OC` [β-asarone], in the data set on animals (after oral administration), the tumor induction entry is reported as “induce tumors in the duodenal region”. Further, the carcinogenicity result in the data set with animals (animals) is listed as “carcinogenic”. Moreover, in the data set with human lymphocytes, the chromosome damaging effect result was “chromosome damaging effect”.

As to `CCCc1cc(OC)c(OC)cc1OC` [2,4,5-trimethoxyphenylpropane, 1-propyl-2,4,5-trimethoxybenzene], in data set [1], the “toxicity relative to β-asarone” value was “five times less toxic”.

Take `C/C=C/c1cc(OC)c(OC)cc1OC` [α-asarone, trans-2,4,5-trimethoxyphenyl-1-propene]: in data set [2], the decrease of cholesterol is given as 49.6%, the decrease of triglycerides was 83.7% and the “high density lipoprotein (HDL)-cholesterol” value is “increased”. Besides, the toxicity entry in the data set with rats is “no toxic effect is observed”. The toxicity entry in the data set with mice was “no toxic effect is observed”.
